The compounds below were run on inflammation induced by tetradecanoyl phorbol acetate (TPA), ears of mice (assay: TPA model: inhibition of tetradecanoyl phorbol acetate (TPA)-induced ear swelling (edema) in mice). Settings: Mus musculus, topical, 4 h, applied to the ears in a vehicle such as acetone, edema measured four hours later, read-out: % inhibition of control swelling.
Type: in vivo
Set-up: dose or concentration left out as unconfirmed
Description: One such model is inflammation induced by tetradecanoyl phorbol acetate (TPA), modified from the method of Kuehl et al., Nature, 1977, 265, 170; and Van Arman, Clin. Pharmacol. Ther., 1974, 16, 900. The TPA model mimics many of the inflammatory changes which occur in human diseases such as psoriasis, since elevated levels of inflammatory arachidonic acid metabolites are found and an influx of polymorphonuclear leukocytes is observed.
The test procedure used to evaluate the compounds of formula (I) is as follows: the test compound […] was applied to the ears of mice in an appropriate vehicle, such as acetone, and then TPA, the inflammatory stimulus was applied to the right ear. Four hours later, the edema was measured by removing standard size discs from the ears using a biopsy punch. The weights of the ears were determined, and the suppression of the swelling observed in animals not treated with the test compound was determined.

First: OC(Cn1ccnc1)(c1ccc(F)cc1)c1ccc(-c2ccncc2)cc1 (centres unmarked) [Example 1, 1-(4-fluorophenyl)-1-[4-(4-pyridyl)phenyl]-2-(1-imidazolyl)ethanol]
Second: Cc1ccc(C(O)(Cn2ccnc2)c2ccc(-c3ccncc3)cc2)cc1 (centres unmarked) [Example 11, 1-(4-methylphenyl)-1-[4-(4-pyridyl)phenyl]-2-(1-imidazolyl)ethanol]
The inhibition in vivo of the first is higher: 72% for the first, 62% for the second.

First: OC(Cn1ccnc1)(c1ccc(-c2ccccn2)cc1)c1ccc(F)cc1F (centres unmarked) [Example 2]
Second: OC(Cn1ccnc1)(c1ccc(-c2cccnc2)cc1)c1ccc(F)cc1F (centres unmarked) [Example 4]
The inhibition in vivo of the first is lower: 51% for the first, 52% for the second.

Compared with OC(Cn1ccnc1)(c1ccc(F)cc1)c1ccc(-c2ccccn2)cc1 (centres unmarked) [Example 3], OC(Cn1ccnc1)(c1ccc(F)cc1)c1cccc(-c2ccccn2)c1 (centres unmarked) [Example 6] is lower in inhibition in vivo: 63% for the first, 61% for the second.

Going from OC(Cn1ccnc1)(c1ccc(-c2ccncc2)cc1)c1ccc(F)cc1F (centres unmarked) [Example 5, 1-(2,4-difluorophenyl)-1-[4-(4-pyridyl)phenyl]-2-(1-imidazolyl)ethanol] to OC(Cn1ccnc1)(c1ccc(F)cc1)c1cccc(-c2ccncc2)c1 (centres unmarked) [Example 8, 1-(4-fluorophenyl)-1-[3-(4-pyridyl)phenyl]-2-(1-imidazolyl)ethanol], the inhibition in vivo falls from 73% to 69%.

First: OC(Cn1ccnc1)(c1ccc(F)cc1)c1cccc(-c2cccnc2)c1 (centres unmarked) [Example 7]
Second: OC(Cn1ccnc1)(c1ccccc1)c1ccc(-c2ccncc2)cc1 (centres unmarked) [Example 9]
The inhibition in vivo of the first is higher: 64% for the first, 46% for the second.

Compared with OC(Cn1ccnc1)(c1ccc(-c2ccncc2)cc1)c1ccccc1Cl (centres unmarked) [Example 10], OC(Cn1ccnc1)(c1ccc(Cl)cc1)c1ccc(-c2ccncc2)cc1 (centres unmarked) [Example 22, 1-(4-chlorophenyl)-1-[4-(4-pyridyl)phenyl]-2-(1-imidazolyl)ethanol] is higher in inhibition in vivo: 63% for the first, 79% for the second.

Compared with COc1ccc(C(O)(Cn2ccnc2)c2ccc(-c3ccncc3)cc2)cc1 (centres unmarked) [Example 12, 1-(4-methoxyphenyl)-1-[4-(4-pyridyl)phenyl]-2-(1-imidazolyl)ethanol], OC(Cn1ccnc1)(c1ccc(-c2ccncc2)cc1)c1ccc(C(F)(F)F)cc1 (centres unmarked) [Example 21, 1-(4-trifluoromethylphenyl)-1-[4-(4-pyridyl)phenyl]-2-(1-imidazolyl)ethanol] is lower in inhibition in vivo: 74% for the first, 66% for the second.
